This is an account of results in patent US10183943B2, “Heterocyclic compounds and their use in preventing or treating bacterial infections” (MUTABILIS, priority 2015, dated 2019).

Broadly, the pIC50 is the negative decadic logarithm of the IC50, by convention in mol/L. What is called MIC is the least concentration at which growth counts as inhibited.

Each structure is given as a SMILES string. pIC50: −log10 of the molar value. Structures can show the parent of a compound that is named as a salt. Bounds are passed on as bounds.

For one assay, the target named is T1, TEM-1 (Escherichia coli, UniProt P62593).
T1 construct: made in house; host or cells: E. coli
Briefly: β-lactamase inhibitory activity, determination of IC50 (nitrocefin hydrolysis). It is filed as biochemical.

The target in the next assay is T2, OXA-11 (Pseudomonas aeruginosa, UniProt Q06778).
T2 construct: made in house; host or cells: E. coli
Described as above. It is filed as biochemical.

Another assay addresses AmpC P. aeruginosa (Pseudomonas aeruginosa, UniProt P24735). The description is as above.
The next assay addresses T3, OXA-1 (Escherichia coli, UniProt P13661).
T3 construct: made in house; host or cells: E. coli
Described as above. As to conditions: class (D); nitrocefin 200 μM, 30 min pre-incubation; read-out: IC50 β-lactamase OXA-1. It is filed as biochemical.

The next assay has as its target T4, OXA-15 (Pseudomonas aeruginosa, UniProt Q51574).
T4 construct: made in house; host or cells: E. coli
As to the kind of experiment: biochemical.

The next assay addresses T5, KPC-2 (Klebsiella pneumoniae, UniProt Q9F663).
T5 construct: made in house; host or cells: E. coli
As to the kind of experiment: β-lactamase inhibitory activity, determination of IC50 (nitrocefin hydrolysis). It counts as biochemical. The following applies: class (A); nitrocefin 200 μM, 30 min pre-incubation; read-out: IC50 β-lactamase KPC-2.

Another assay concerns the target T6, OXA-48 (Klebsiella pneumoniae, UniProt Q6XEC0).
T6 construct: made in house; host or cells: E. coli
The assay is described as above. It is filed as biochemical. As to conditions: class (D); nitrocefin 200 μM, 30 min pre-incubation; read-out: IC50 β-lactamase OXA-48.

A further assay addresses AmpC (P99) (Enterobacter cloacae, UniProt P05364). The description is as above.
A further assay deals with T7, CTX-M-15 (Escherichia coli, UniProt Q9EXV5).
T7 construct: made in house; host or cells: E. coli
Described as above. It counts as biochemical. The following applies: class (A); nitrocefin 200 μM, 30 min pre-incubation; read-out: IC50 β-lactamase CTX-M-15.

A further assay deals with T8, SHV-1 (Klebsiella pneumoniae, UniProt P0AD64).
T8 construct: made in house; host or cells: E. coli
The assay is described as above. It is filed as biochemical.

In assay [1] the test system is E. coli 131119 (TEM-1, OXA-48). Briefly: MIC of compounds alone, broth microdilution. It counts as cell-based. As to conditions: Escherichia coli; strain 131119 (E. coli); read-out: MIC compounds of the invention alone. In short, it runs like this: (§1)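 Broth microdilution per CLSI M7-A7: compounds alone, in DMSO, challenged with log-phase bacteria at 5×10^5 cfu/mL in cation-adjusted Mueller-Hinton broth. Plates incubated 16-20 h at 35° C in ambient air; MIC is the lowest concentration preventing visible growth.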
(In broth dilution the organism is exposed to a series of concentrations in liquid medium.)

Another assay has as its system E. cloacae P99 (AmpC). Briefly: MIC of compounds alone, broth microdilution. As to conditions: Enterobacter cloacae; strain P99 (E. cloacae); read-out: MIC compounds of the invention alone. It is filed as cell-based. An outline of the steps:
as §1

The next assay deals with E. coli RGN238 (OXA-1). Briefly: MIC of compounds alone, broth microdilution. It counts as cell-based. As to conditions: Escherichia coli; strain RGN238 (E. coli); read-out: MIC compounds of the invention alone. An outline of the steps: as §1
The subject of assay [2] is K. pneumoniae BAA-1898 (TEM-1, SHV-11, SHV-12, KPC-2). Briefly: MIC of compounds alone, broth microdilution. It is filed as cell-based. As to conditions: Klebsiella pneumoniae, BAA1898; strain BAA-1898 (K. pneumoniae); read-out: MIC compounds of the invention alone. In short, it runs like this:
as §1

Assay [3] deals with P. aeruginosa CIP107051 (TEM-24). As to the kind of experiment: MIC of compounds alone, broth microdilution. It is filed as cell-based. The following applies: Pseudomonas aeruginosa; strain CIP107051 (P. aeruginosa); read-out: MIC compounds of the invention alone. An outline of the steps:
as §1

The subject of assay [4] is K. pneumoniae 6299 (TEM-1, SHV-11, OXA-163). As to the kind of experiment: MIC of compounds alone, broth microdilution. As to conditions: Klebsiella pneumoniae; strain 6299 (K. pneumoniae); read-out: MIC compounds of the invention alone. It is filed as cell-based. An outline of the steps:
as §1

Assay [5] has as its system E. coli 190317 (TEM-1, SHV-12, CTX-M-15, OXA-1). As to the kind of experiment: MIC of compounds alone, broth microdilution. It counts as cell-based. The following applies: Escherichia coli, read-out: MIC compounds of the invention alone. An outline of the steps: as §1
Assay [6] has as its system K. pneumoniae UFR39 (CTX-M-15, NDM-1). As to the kind of experiment: MIC of compounds alone, broth microdilution. As to conditions: Klebsiella pneumoniae; strain UFR39 (K. pneumoniae); read-out: MIC compounds of the invention alone. It is filed as cell-based. An outline of the steps:
as §1

T7 sequence (Q9EXV5 entry or part of it): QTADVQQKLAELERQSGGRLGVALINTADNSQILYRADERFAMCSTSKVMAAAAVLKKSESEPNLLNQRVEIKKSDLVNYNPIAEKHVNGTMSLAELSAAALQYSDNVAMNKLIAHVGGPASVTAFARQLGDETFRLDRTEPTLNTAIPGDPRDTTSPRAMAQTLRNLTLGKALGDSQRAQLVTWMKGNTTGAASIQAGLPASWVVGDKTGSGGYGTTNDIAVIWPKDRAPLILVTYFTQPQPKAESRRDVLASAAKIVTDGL
Sequence of AmpC (P99) (P05364 21-381): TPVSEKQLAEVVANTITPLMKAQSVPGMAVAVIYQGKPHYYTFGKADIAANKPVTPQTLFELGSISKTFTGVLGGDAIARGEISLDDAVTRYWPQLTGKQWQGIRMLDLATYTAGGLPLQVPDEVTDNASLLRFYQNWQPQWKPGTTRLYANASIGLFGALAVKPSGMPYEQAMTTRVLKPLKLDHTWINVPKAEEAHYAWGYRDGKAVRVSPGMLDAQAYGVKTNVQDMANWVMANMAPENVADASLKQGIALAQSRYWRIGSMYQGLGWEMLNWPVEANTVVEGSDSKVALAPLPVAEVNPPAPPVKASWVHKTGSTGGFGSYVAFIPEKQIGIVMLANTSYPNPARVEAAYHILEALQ
Sequence of AmpC P. aeruginosa (P24735 27-397): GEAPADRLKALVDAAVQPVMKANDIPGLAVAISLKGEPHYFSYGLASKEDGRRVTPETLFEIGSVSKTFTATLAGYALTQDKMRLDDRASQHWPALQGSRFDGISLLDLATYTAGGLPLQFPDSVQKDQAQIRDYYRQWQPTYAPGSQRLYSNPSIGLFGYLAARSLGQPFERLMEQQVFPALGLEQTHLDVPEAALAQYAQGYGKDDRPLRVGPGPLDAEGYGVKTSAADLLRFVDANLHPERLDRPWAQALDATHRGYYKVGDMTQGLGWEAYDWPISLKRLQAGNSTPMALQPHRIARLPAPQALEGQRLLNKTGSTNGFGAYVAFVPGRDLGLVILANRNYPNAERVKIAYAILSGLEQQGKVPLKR
T4 sequence (Q51574 22-275): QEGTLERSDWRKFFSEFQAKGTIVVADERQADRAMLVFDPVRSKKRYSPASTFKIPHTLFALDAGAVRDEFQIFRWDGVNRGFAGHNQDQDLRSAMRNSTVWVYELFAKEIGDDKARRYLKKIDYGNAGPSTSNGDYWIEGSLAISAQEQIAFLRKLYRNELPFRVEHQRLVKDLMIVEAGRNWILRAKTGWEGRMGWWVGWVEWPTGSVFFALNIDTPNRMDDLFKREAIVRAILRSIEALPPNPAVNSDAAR
T6 sequence (Q6XEC0 23-265 limits assumed): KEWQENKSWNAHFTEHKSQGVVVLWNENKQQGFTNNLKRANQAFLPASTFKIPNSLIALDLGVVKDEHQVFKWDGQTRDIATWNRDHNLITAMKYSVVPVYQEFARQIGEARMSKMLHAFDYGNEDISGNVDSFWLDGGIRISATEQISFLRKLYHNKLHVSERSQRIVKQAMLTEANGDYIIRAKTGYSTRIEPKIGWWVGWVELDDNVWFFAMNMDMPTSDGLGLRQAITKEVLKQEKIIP
T5 sequence (Q9F663 25-293 limits assumed): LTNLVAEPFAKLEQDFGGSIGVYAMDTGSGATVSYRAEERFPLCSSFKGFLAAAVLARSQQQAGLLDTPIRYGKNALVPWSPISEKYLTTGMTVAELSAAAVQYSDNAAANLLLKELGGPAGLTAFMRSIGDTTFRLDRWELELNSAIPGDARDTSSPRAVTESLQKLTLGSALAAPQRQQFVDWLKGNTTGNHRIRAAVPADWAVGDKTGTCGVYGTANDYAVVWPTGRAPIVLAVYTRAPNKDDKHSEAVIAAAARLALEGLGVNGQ
T1 sequence (P62593 24-286 limits assumed): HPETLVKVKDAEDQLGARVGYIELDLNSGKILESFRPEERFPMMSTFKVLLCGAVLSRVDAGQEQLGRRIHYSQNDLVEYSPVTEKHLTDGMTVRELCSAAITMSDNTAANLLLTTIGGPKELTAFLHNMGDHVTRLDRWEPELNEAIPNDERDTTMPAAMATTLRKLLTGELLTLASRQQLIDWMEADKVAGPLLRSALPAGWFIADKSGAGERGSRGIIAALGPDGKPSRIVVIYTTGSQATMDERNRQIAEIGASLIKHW
T3 sequence (P13661 26-276): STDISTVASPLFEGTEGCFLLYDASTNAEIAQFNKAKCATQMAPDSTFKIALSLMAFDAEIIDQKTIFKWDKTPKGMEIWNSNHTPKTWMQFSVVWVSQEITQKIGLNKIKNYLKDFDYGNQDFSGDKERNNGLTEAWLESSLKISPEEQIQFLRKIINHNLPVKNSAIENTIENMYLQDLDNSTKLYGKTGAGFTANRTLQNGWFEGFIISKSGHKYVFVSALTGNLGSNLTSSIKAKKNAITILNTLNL
T8 sequence (P0AD64 22-286): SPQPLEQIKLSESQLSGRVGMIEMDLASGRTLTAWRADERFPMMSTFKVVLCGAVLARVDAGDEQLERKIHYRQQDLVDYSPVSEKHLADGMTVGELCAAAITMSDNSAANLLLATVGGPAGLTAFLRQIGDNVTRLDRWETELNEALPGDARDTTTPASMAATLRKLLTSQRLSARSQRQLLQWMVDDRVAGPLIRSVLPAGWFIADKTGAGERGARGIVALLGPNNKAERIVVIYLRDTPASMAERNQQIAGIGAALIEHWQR
T2 sequence (Q06778 21-266): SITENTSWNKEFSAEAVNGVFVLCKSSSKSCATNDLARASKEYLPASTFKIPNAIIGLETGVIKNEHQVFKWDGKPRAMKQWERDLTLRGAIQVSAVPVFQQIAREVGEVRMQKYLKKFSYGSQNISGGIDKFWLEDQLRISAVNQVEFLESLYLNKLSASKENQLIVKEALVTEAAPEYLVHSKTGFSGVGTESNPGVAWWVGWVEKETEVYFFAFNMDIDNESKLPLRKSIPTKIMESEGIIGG

In the case of `O=C1N2CC=C(c3cnsc3)C(C2)N1OS(=O)(=O)[O-].[Na+]` (stereo not shown) [Example 29, Sodium [4-(isothiazol-4-yl)-7-oxo-1,6-diazabicyclo[3.2.1]oct-3-en-6-yl] sulfate], the pIC50 at TEM-1 is 7.96; at OXA-11 it was 5.77; at AmpC P. aeruginosa, 5.92; on OXA-1 it was 6.48; against OXA-15 it was 7.04; on KPC-2 it was 6.82. The pIC50 at OXA-48 was 8.55; against AmpC (P99), 6.02; on CTX-M-15, 8.24; on SHV-1, 7.70. Further, the minimal inhibitory concentration (MIC) (in assay [1]; in the assay with E. cloacae P99 (AmpC); with E. coli RGN238 (OXA-1); in assay [2]; in assay [3]; in assay [4]) was above 32 µg/mL each time. The MIC in assay [5] was above 32 µg/mL.
As to `O=C1N2CC=C(c3cscn3)C(C2)N1OS(=O)(=O)[O-].[Na+]` (stereo not shown) [Example 31, sodium [4-(thiazol-4-yl)-7-oxo-1,6-diazabicyclo[3.2.1]oct-3-en-6-yl] sulfate], the pIC50 against TEM-1 is 8.31; at OXA-11 it was 6.00; against AmpC P. aeruginosa, 5.82; on OXA-1 it was 5.96; at OXA-15, 7.01; at KPC-2, 6.44. The pIC50 on OXA-48 is 8.64; against AmpC (P99) it was 6.03; on CTX-M-15, 8.26; against SHV-1 it was 7.96. The MIC in assay [1] is 16 µg/mL; in the assay with E. cloacae P99 (AmpC) it was 16 µg/mL; in the assay with E. coli RGN238 (OXA-1) it was above 32 µg/mL; in [2], above 32 µg/mL; in assay [3] it was above 32 µg/mL; in assay [4], above 32 µg/mL. Moreover, the MIC in assay [5] was 16 µg/mL.
As for `NCc1ncc(C2=CCN3CC2N(OS(=O)(=O)O)C3=O)s1` (stereo not shown) [Example 32, [4-[2-(aminomethyl)thiazol-5-yl]-7-oxo-1,6-diazabicyclo[3.2.1]oct-3-en-6-yl] hydrogen sulfate], the negative-log IC50 (pIC50) is 8.12 against TEM-1; 5.46 at OXA-11; 5.49 against AmpC P. aeruginosa; 6.17 on OXA-1; 6.77 at OXA-15; 6.52 on KPC-2. Besides, the pIC50 is 8.05 at OXA-48, 5.36 on AmpC (P99), 7.85 at CTX-M-15 and 7.48 at SHV-1. In addition, the MIC is above 32 µg/mL in assay [1]; 16 µg/mL in the assay with E. cloacae P99 (AmpC); above 32 µg/mL in the assay with E. coli RGN238 (OXA-1); above 32 µg/mL in assay [2]; above 32 µg/mL in assay [3]; above 32 µg/mL in assay [4]. In assay [5], the MIC was 8 µg/mL.
For the compound `COc1ncc(C2=CC3CN(C2)C(=O)N3OS(=O)(=O)[O-])s1.[Na+]` (stereo not shown) [Example 39, Sodium [3-(2-methoxythiazol-5-yl)-7-oxo-1,6-diazabicyclo[3.2.1]oct-3-en-6-yl] sulfate], the pIC50 is 8.85 at TEM-1; 6.85 against OXA-11; 6.62 on AmpC P. aeruginosa; 6.66 on OXA-1; 7.10 on OXA-15; 7.96 at KPC-2. Further, the pIC50 at OXA-48 is 9.00; against AmpC (P99), 7.34; on CTX-M-15, 9.21; on SHV-1 it was 8.49. The MIC (with E. cloacae P99 (AmpC); in assay [6]; in [2]; in assay [3]; in assay [4]; in [5]) was above 32 µg/mL each time.
